Each structure is given as a SMILES string. pIC50, pKd: −log10 of the molar value.

Assay [1] deals with T1, p53 Y220C mutant protein (amino acid residues 94-293) (Homo sapiens, UniProt P04637, Y220C).
T1 construct: p53 Y220C mutant protein (amino acid residues 94-293)
Nature of the assay: Surface Plasmon Resonance (SPR) assay, p53 Y220C Kd_kinetic. The note with it: multi-cycle kinetics, 16 or 20 °C, pH 7.5, 1:1 binding model. Here is the method:
SPR experiments are performed on a Biacore 8K instrument. […] Compounds are 2-fold, 7-point serial diluted; the top concentration varies depending on the potency. Compound binding affinities are measured in the multi-cycle kinetics mode, at 30 μL/min flow rate with 60 seconds association time and 120 seconds dissociation time. The running buffer contains 50 mM Tris, pH 7.5, 100 mM NaCl, 1 mM DTT, 0.01% Brij35, 0.05% Tween-20 and 1% DMSO. The assay temperature is maintained at 16 or 20 °C and data are fit into the 1:1 binding model using the Biacore Insight Evaluation software.

The subject of assay [2] is NCIH1299-inducible p53 Y220C cells. The experiment in a line: Cell Proliferation Assay (CellTiter-Glo), NCIH1299-inducible p53 Y220C. Type of assay: cell-based. Conditions: Homo sapiens, NCI-H1299, 120 h, 5 days, read-out: CTG H1299 P53 Y220C IC50. Here is the method: (§1) Inducible p53 Y220C and R273H constructs (Tet-One inducible expression system; Takara) were stably expressed in NCIH1299 cells by lentiviral transduction. NUGC3, A549, BxPC3, T3M4, HuH7, HCC2935, MFE296, NCIH1299, NCIH1299-inducible p53 Y220C, and NCIH1299-inducible p53 R273H cell lines were used for cell proliferation assay. 250-500 cells were seeded in each well of 384 plate and then compounds were dispensed into each well using Echo or Tecan. After 5 days of incubation, equal volume of CellTiter-Glo reagent (G7570; Promega) was added into each well and the plate was incubated at room temperature for 10 minutes with shaking. The luminescent signal was measured by PheraStar microplate reader and IC50 was calculated.
A general note: In ATP-based viability assays light output follows the ATP content of the culture.

Assay [3] concerns the target p53 Y220C (Homo sapiens, UniProt P04637, Y220C). The experiment in a line: Luciferase Reporter Assay, p53 Y220C (NCIH1299 cells with inducible p53 Y220C and p53 response element-luciferase). Format: cell-based. Conditions: 6 hour compound treatment, read-out: Luc P53 Y220C AC50. Here is the method:
Luciferase reporter (Luc) driven by p53 response element (LTV-p53-Luc (SKU #: LTLR007); G&P Biosciences) and inducible p53 Y220C construct (Tet-One inducible expression system; Takara) were stably expressed in NCIH1299 cells by lentiviral transduction. The cells were then used for p53 reporter assay. 5,000 cells were seeded in each well of 384 plate and cultured in 0.5 ug/mL doxycycline (D3072; Sigma) containing medium for 24 hours before compound treatment. After 6 hour of compound treatment, equal volume of One-Glo reagent (E6110; Promega) was added to each well and the plate was incubated for 5 minutes with shaking at room temperature. The luciferase activity was immediately measured with PheraStar microplate reader. Luciferase activity was stimulated by 10 uM of a tool compound as positive control and AC50 was calculated.

Assay [4] deals with NUGC3 cells (p53 Y220C). The experiment in a line: Cell Proliferation Assay (CellTiter-Glo), NUGC3 p53 Y220C. Conditions: Homo sapiens, NUGC-3, 120 h, 5 days, read-out: CTG NUGC3 P53 Y220C IC50. Type of assay: cell-based. Here is the method:
as §1

T1 sequence (P04637 94-293, stated change not applied): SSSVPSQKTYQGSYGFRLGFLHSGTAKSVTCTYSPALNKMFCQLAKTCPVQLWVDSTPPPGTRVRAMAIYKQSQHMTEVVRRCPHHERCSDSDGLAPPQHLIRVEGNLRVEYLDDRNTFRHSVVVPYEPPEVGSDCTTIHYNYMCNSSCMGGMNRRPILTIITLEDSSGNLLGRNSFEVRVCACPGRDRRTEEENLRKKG

As to `COc1ccc2n[nH]c(CC(=O)NCc3nc(-c4cc5c(N[C@@H]6CCN(C)C[C@@H]6F)cccn5c4SC(F)(F)F)no3)c2c1` [Example 9, N-{[3-(8-{[(3S,4R)-3-fluoro-1-methylpiperidin-4-yl]amino}-3-[(trifluoromethyl)sulfanyl]indolizin-2-yl)-1,2,4-oxadiazol-5-yl]methyl}-2-(5-methoxy-1H-indazol-3-yl)acetamide], the negative-log Kd (pKd) in assay [1] is 6.00 to 7.00. Besides, the pIC50 in assay [2] and in assay [4] was 5.52 to 5.82 in each case. In addition, in assay [3], the AC50 is no less than 3000 nM.

Compound `CN1CC[C@@H](Nc2cccn3c(SC(F)(F)F)c(-c4noc(CNC(=O)[C@@H]5COCCO5)n4)cc23)[C@@H](F)C1` [Example 11, (2S)—N-{[3-(8-{[(3S,4R)-3-fluoro-1-methylpiperidin-4-yl]amino}-3-[(trifluoromethyl)sulfanyl]indolizin-2-yl)-1,2,4-oxadiazol-5-yl]methyl}-1,4-dioxane-2-carboxamide] gave a negative logarithm of the Kd (pKd) in assay [1] greater than 8.00. For the same compound, the pIC50 in assay [2] and in assay [4] was 5.82 to 6.12 each time. Also, the concentration at half-maximal activity (AC50) in assay [3] lay within 750 to 1500 nM.

The compound `CN1CC[C@@H](Nc2cccn3c(SC(F)(F)F)c(-c4noc(CNC(=O)c5cnc(N(C)C)o5)n4)cc23)[C@@H](F)C1` [Example 12, 2-(dimethylamino)-N-{[3-(8-{[(3S,4R)-3-fluoro-1-methylpiperidin-4-yl]amino}-3-[(trifluoromethyl)sulfanyl]indolizin-2-yl)-1,2,4-oxadiazol-5-yl]methyl}-1,3-oxazole-5-carboxamide] had a pKd in assay [1] greater than 8.00. The negative-log IC50 (pIC50) in assay [2] and in assay [4] was greater than 6.12 in each case. Besides, in assay [3], the concentration at half-maximal activity (AC50) is less than 750 nM.

With `CN1CC[C@@H](Nc2cccn3c(SC(F)(F)F)c(-c4noc(CNC(=O)c5cnc(C(C)(C)C)o5)n4)cc23)[C@@H](F)C1` [Example 13, 2-tert-butyl-N-{[3-(8-{[(3S,4R)-3-fluoro-1-methylpiperidin-4-yl]amino}-3-[(trifluoromethyl)sulfanyl]indolizin-2-yl)-1,2,4-oxadiazol-5-yl]methyl}-1,3-oxazole-5-carboxamide], in assay [1], the pKd was greater than 8.00. Besides, the negative-log IC50 (pIC50) in assay [2] and in assay [4] was greater than 6.12 in each case. For the same compound, in assay [3], the AC50 is less than 750 nM.

With `Cc1c(C(=O)NCc2nc(-c3cc4c(N[C@@H]5CCN(C)C[C@@H]5F)cccn4c3SC(F)(F)F)no2)sc2nc[nH]c(=O)c12` [Example 14, N-{[3-(8-{[(3S,4R)-3-fluoro-1-methylpiperidin-4-yl]amino}-3-[(trifluoromethyl)sulfanyl]indolizin-2-yl)-1,2,4-oxadiazol-5-yl]methyl}-5-methyl-4-oxo-3H-thieno[2,3-d]pyrimidine-6-carboxamide], the pKd in assay [1] was 7.00 to 8.00. Also, the negative logarithm of the IC50 (pIC50) in assay [2] and in assay [4] was 5.82 to 6.12 each time. In addition, the AC50 in assay [3] lay within 1500 to 3000 nM.

For `CN1CC[C@@H](Nc2cccn3c(SC(F)(F)F)c(-c4noc(CNC(=O)c5ccc6c(c5)C(C)(C)C(=O)N6)n4)cc23)[C@@H](F)C1` [Example 15, N-{[3-(8-{[(3S,4R)-3-fluoro-1-methylpiperidin-4-yl]amino}-3-[(trifluoromethyl)sulfanyl]indolizin-2-yl)-1,2,4-oxadiazol-5-yl]methyl}-3,3-dimethyl-2-oxo-1H-indole-5-carboxamide], the pKd in assay [1] was greater than 8.00. In addition, the pIC50 in assay [2] and in assay [4] was greater than 6.12 in each case. For the same compound, the half-maximal activity concentration (AC50) in assay [3] was less than 750 nM.

Regarding `CN1CC[C@@H](Nc2cccn3c(SC(F)(F)F)c(-c4noc(CNC(=O)c5ccc6c(c5)NC(=O)C6)n4)cc23)[C@@H](F)C1` [Example 16, N-{[3-(8-{[(3S,4R)-3-fluoro-1-methylpiperidin-4-yl]amino}-3-[(trifluoromethyl)sulfanyl]indolizin-2-yl)-1,2,4-oxadiazol-5-yl]methyl}-2-oxo-1,3-dihydroindole-6-carboxamide], the pKd in assay [1] was greater than 8.00. The results for the pIC50 in assay [2] and in assay [4] were 5.82 to 6.12 and greater than 6.12, respectively. Also, the half-maximal activity concentration (AC50) in assay [3] fell in the range of 750 to 1500 nM.

Take `CN1CC[C@@H](Nc2cccn3c(SC(F)(F)F)c(-c4noc(CNC(=O)c5cccc6c5NC(=O)C6)n4)cc23)[C@@H](F)C1` [Example 17, N-{[3-(8-{[(3S,4R)-3-fluoro-1-methylpiperidin-4-yl]amino}-3-[(trifluoromethyl)sulfanyl]indolizin-2-yl)-1,2,4-oxadiazol-5-yl]methyl}-2-oxo-1,3-dihydroindole-7-carboxamide]: the negative-log Kd (pKd) in assay [1] is greater than 8.00. Moreover, the pIC50 in assay [2] was 5.82 to 6.12; in assay [4] it was greater than 6.12. Besides, the AC50 in assay [3] was less than 750 nM.

As to `CN1CC[C@@H](Nc2cccn3c(SC(F)(F)F)c(-c4noc(CNC(=O)c5ccc6c(c5)CC(=O)N6)n4)cc23)[C@@H](F)C1` [Example 18, N-{[3-(8-{[(3S,4R)-3-fluoro-1-methylpiperidin-4-yl]amino}-3-[(trifluoromethyl)sulfanyl]indolizin-2-yl)-1,2,4-oxadiazol-5-yl]methyl}-2-oxo-1,3-dihydroindole-5-carboxamide], in assay [1], the pKd was greater than 8.00. Further, the negative-log IC50 (pIC50) in assay [2] was 5.82 to 6.12; in assay [4] it was greater than 6.12. For the same compound, the AC50 in assay [3] was in the range of 750 to 1500 nM.

The compound `CN1CC[C@@H](Nc2cccn3c(SC(F)(F)F)c(-c4noc(CNC(=O)c5ccc6[nH]cc(C#N)c6c5)n4)cc23)[C@@H](F)C1` [Example 19, 3-cyano-N-{[3-(8-{[(3S,4R)-3-fluoro-1-methylpiperidin-4-yl]amino}-3-[(trifluoromethyl)sulfanyl]indolizin-2-yl)-1,2,4-oxadiazol-5-yl]methyl}-1H-indole-5-carboxamide] gave a negative logarithm of the Kd (pKd) in assay [1] of 7.00 to 8.00. The pIC50 in assay [2] and in assay [4] was greater than 6.12 throughout. The half-maximal activity concentration (AC50) in assay [3] is 750 to 1500 nM.

Take `CN1CC[C@@H](Nc2cccn3c(SC(F)(F)F)c(-c4noc(CNC(=O)c5csc(N6CCOCC6)n5)n4)cc23)[C@@H](F)C1` [Example 20, N-{[3-(8-{[(3S,4R)-3-fluoro-1-methylpiperidin-4-yl]amino}-3-[(trifluoromethyl)sulfanyl]indolizin-2-yl)-1,2,4-oxadiazol-5-yl]methyl}-2-(morpholin-4-yl)-1,3-thiazole-4-carboxamide]: the pKd in assay [1] is greater than 8.00. Besides, the negative-log IC50 (pIC50) in assay [2] and in assay [4] was greater than 6.12 in each case. Also, the AC50 in assay [3] is less than 750 nM.

With `COc1ccc2[nH]nc(C(=O)NCc3nc(-c4cc5c(N[C@@H]6CCN(C)C[C@@H]6F)cccn5c4SC(F)(F)F)no3)c2c1` [Example 21, N-{[3-(8-{[(3S,4R)-3-fluoro-1-methylpiperidin-4-yl]amino}-3-[(trifluoromethyl)sulfanyl]indolizin-2-yl)-1,2,4-oxadiazol-5-yl]methyl}-5-methoxy-1H-indazole-3-carboxamide], in assay [1], the pKd is 6.00 to 7.00. Besides, the negative logarithm of the IC50 (pIC50) in assay [2] and in assay [4] was 5.52 to 5.82 each time. For the same compound, in assay [3], the AC50 is 1500 to 3000 nM.

Take `CN1CC[C@@H](Nc2cccn3c(SC(F)(F)F)c(-c4noc(CNC(=O)c5ccc6c(c5)NC(=O)CN6C)n4)cc23)[C@@H](F)C1` [Example 23, N-{[3-(8-{[(3S,4R)-3-fluoro-1-methylpiperidin-4-yl]amino}-3-[(trifluoromethyl)sulfanyl]indolizin-2-yl)-1,2,4-oxadiazol-5-yl]methyl}-1-methyl-3-oxo-2,4-dihydroquinoxaline-6-carboxamide]: in assay [1], the negative-log Kd (pKd) was greater than 8.00. In addition, the pIC50 in assay [2] and in assay [4] was greater than 6.12 in each case. Besides, the half-maximal activity concentration (AC50) in assay [3] was less than 750 nM.

`CN1CC[C@@H](Nc2cccn3c(SC(F)(F)F)c(-c4noc(CNC(=O)C5(O)CC5)n4)cc23)[C@@H](F)C1` [Example 24, N-{[3-(8-{[(3S,4R)-3-fluoro-1-methylpiperidin-4-yl]amino}-3-[(trifluoromethyl)sulfanyl]indolizin-2-yl)-1,2,4-oxadiazol-5-yl]methyl}-1-hydroxycyclopropane-1-carboxamide] gave a negative-log Kd (pKd) in assay [1] greater than 8.00. Moreover, the negative logarithm of the IC50 (pIC50) in assay [2] and in assay [4] was 5.82 to 6.12 throughout. Besides, the concentration at half-maximal activity (AC50) in assay [3] is less than 750 nM.

For orientation: pKd means the Kd on a negative log10 scale, so that one unit is a factor of ten. The low end stands for a high Kd, the high end for a low Kd. The pIC50 is the IC50 on a negative log10 scale, so that one unit is a factor of ten. Broadly, the AC50 is the concentration giving half of the maximal activity seen.

The record behind these values is patent publication US20260347353A1, “INDOLIZINE DERIVATIVES FOR TREATING CANCER” (Antares Therapeutics, Inc., priority 2022, published 2026).
